Patent US12324855B2, “Method of safe administration of phosphorylated Tau peptide vaccine” (AC Immune SA, priority 2019, dated 2025)
Square brackets hold non-standard residues; d marks the D form. Ends that are not written are not given here. pS = N[C@@H](COP(=O)(O)O)C(=O)O

Test system: CD4+ T-cell response in PBMCs from 51 human donors
Assay: EpiScreen time course T-cell proliferation and IL-2 ELISPOT assays (Example 6)
Type: cell-based
Conditions: 5 μM peptide, 51 donors; for donors responding, taking into account borderline responses and donors responding in only one of the two assays: SI≥1.90 borderline; for donors responding in both IL-2 ELISPOT and proliferation assays: SI≥2.00
Protocol: Two 16-mer peptides, Tau 393-408[pS396/pS404] (T3.5 having the amino acid sequence of SEQ ID NO:2) and Tau393-408 (T3.6 having the amino acid sequence of SEQ ID NO:4) were tested in EpiScreen™ time course T-cell assays for the capacity to induce CD4^+ T-cell response in 51 human donors.
EpiScreen™ Time Course T-cell Proliferation Assays and IL-2 ELISPOT Assays
PBMCs from 51 human donors were stimulated with either peptide at a final concentration of 5 μM. For each donor, a reproducibility control (cells incubated with 100 μg/mL KLH), a benchmark clinical control (cells incubated with 0.3 μM humanized A33) and a culture medium only well were also included. Proliferation and IL-2 production were evaluated after different time points.
For proliferation assays and IL-2 ELISPOT assays, an empirical threshold of a Stimulation Index (SI) equal to or greater than two (SI≥2.00) has been previously established whereby samples inducing responses above this threshold are deemed positive whereas SI≥1.90 were considered as borderline responders.
Previous EpiScreen™ time course T-cell assays with a range of biologics have shown a clear correlation between the percentage of donor T-cell responses in the EpiScreen™ assay and the level of immunogenicity observed in the clinic. In general, protein therapeutics that induce >10% positive responses in the EpiScreen™ assay are associated with a significant risk of immunogenicity in the clinic.

| Substance | donors responding, taking into account borderline responses and donors responding in only one of the two assays [%] | donors responding in both IL-2 ELISPOT and proliferation assays [%] |
| --- | --- | --- |
| VYK[pS]PVVSGDT[pS]PRHL [Tau 393-408 [pS396/pS404]] | 8 | 2 |
| VYKSPVVSGDTSPRHL (tau peptide) [Tau 393-408, 16-mer non-phosphorylated Tau peptide] | 8 | 4 |
